Measurements from patent US9527066B2, “Dihydroxybipyridine complexes of ruthenium and iridium for water oxidation and hydrogenation” (The Board of Trustees of The University of Alabama, priority 2011, dated 2016).
Like-named read-outs stand apart in the source and are kept apart here.

Assays:
[1] = Water oxidation with sodium periodate, Clark electrode
Excerpt: Chem. Soc., 2010, vol. 132, pp. 16017-16029:

[2] = for TOF / TON: 5 μM catalyst, 20 mM NaIO4 in 180 mM NaOAc; for Enhancement as pH change from 3 to 6: ratio pH 6 to pH 3
Description: Catalysts of the formula Cp*IrCl(n,n′-DHBP)]Cl according to the present invention were used for water oxidation at a variety of different pH levels. These catalysts were the same catalysts as the first three catalysts used in Example 6.5 μM catalyst with 20 mM NaIO4 in 180 mM NaOAc were employed.

[3] = 5 μM catalyst; for 10 min: TOF / 10 min: TON / TOF: 20 mM NaIO4, pH 5.6, 25° C.; for TOF / Initial Rate: first 30 sec; for Initial Rate: 20 mM NaIO4, pH 5.6 NaOAc buffer, 25° C.
Description: Catalysts were used for water oxidation with NaIO4 as an oxidant.
20 mM of NaIO4 was added. The pH was 5.6 and NaOAc was used as a buffer. The vessel and catalyst solution were maintained at 25° C.

[4] = UV-Vis titration, Na2HPO4/HCl buffers pH 2.5-9.2; simultaneous removal of both ligand protons
Description: Approximately 100 mL of 0.1M Na2HPO4 was put into a beaker and stirred and the pH was recorded. 2 mL of 0.0000034M catalyst was put into 10 mL volumetric flasks (final concentration of Ir complex is 6.8 μM). 100 mL of 0.1M Na2HPO4 was titrated with 0.1M HCl until it reached the desired buffer pH (every 0.5 pH unit). At each desired buffer pH, 8 mL of the solution was put into the volumetric flasks. pH's used were as follows: 9.2, 8.0, 7.5, 7.0, 6.5, 6.0, 5.5, 5.0, 4.5, 4.0, 3.5, 3.0, 2.5. […] UV/Vis spectra for each solution were obtained (FIG. 5).

[5] = 5 μM catalyst
Description: A catalyst according to the present invention [Cp*Ir^III(DHBP)Cl]Cl was used for water oxidation with cerium (IV) ammonium nitrate (CAN) as the oxidant. The reaction progress was monitored by a Clark electrode to measure the increase in dissolved oxygen with time in a sealed vessel. For longer reaction times, the amount of oxygen that builds up in the headspace is significant and was measured by pressure transducers. In the first set of experiments, the concentration of catalyst was 5 μM and CAN=67 mM at pH=6.0. […] A prior art catalyst, catalyst 15(Cat 15 in FIG. 4, “Cat 15+67 mM CAN”) was used as a comparison. The prior art Cat 15 is represented by the formula taken from Blakemore, et al., “Half-sandwich iridium complexes for homogeneous water-oxidation catalysis,” J. Am. Chem. Soc., 2010, vol. 132, pp. 16017-16029:
In a second set of experiments, the concentration of catalyst was 5 μM. Cat5 was used in a buffered aqueous solution at pH 5.6 with 17 mM sodium periodate as the oxidant, as shown in green in FIG. 4.

[6] = 17 mM NaIO4 as oxidant, 25° C.
Description: Rates were most linear from 30 to 240 seconds. […] In this analysis, the slope corresponds to reaction order in Ir catalyst.

[7] = Hydrogenation of acetophenone, comparison of five catalysts; settings: 0.02 mmole catalyst, 85-90° C., 24 hours unless x=18, y=20, z=21 hours
Description: Five catalysts were used to catalyze hydrogenation of acetophenone. The first four are represented by the following structures:
These catalysts are represented as 1-4 in Table 4. The last catalyst is [(η^6-p-cymene)RuCl2]2. The reaction mixture contained 0.02 mmole catalyst, 10 mmole of NaO2CH or 2 mmole of KOH, 0.667 mmole of 1,3,4-trimethoxybenzene as internal standard, and 10 mL solvent. The reaction was carried out under N2 at 85-90° C. for 24 hours unless otherwise stated (x=18 hours, y=20 hours, z=21 hours). The percentage conversion was determined by ^1H-NMR as an average of two trials.

[8] = Hydrogenation of ketones with NaO2CH in MeOH:water; settings: for % conversion: 1 mole % catalyst, 10:90 MeOH:water, NaO2CH, reflux 16-18 hours
Description: (§1) [drawing 11] was used for hydrogenation of several different organic substrates. For ketones, the reaction was carried out by mixing 1 mole % of catalyst, 10:90 of MeOH:water and NaO2CH, and heated to reflux for 16-18 hours. For imines, the reaction was carried out by mixing 1 mole % of catalyst, THF, NEt3 base (5 molar %) and 75 psi H2(g), with heating to reflux for 48 hours. The catalyst provided a very high percentage conversion for ketones in water.

[9] = Hydrogenation of imines with H2 in THF; settings: substrate N-benzylidene-methylamine
Description: as §1

[10] = Hydrogenation of acetophenone under various conditions; settings: 90° C., 16-17 hours
Description: [drawing 12] was used to catalyze hydrogenation of acetophenone under various conditions. For each mole of the substrate, 5 moles of a base is used. The reaction is carried out at 90° C. for 16-17 hours.

[11] = first 30 seconds of reaction, 5 μM catalyst, 78 mM CAN, 25° C.
[12] = first 10 minutes of reaction, 5 μM catalyst, 78 mM CAN, 25° C.
[13] = 5 μM catalyst, pH 5.6 buffered, 17 mM sodium periodate
[14] = substrate 2-methoxy-acetophenone
[15] = substrate 4-methoxy-acetophenone

Cc1c(C)c(C)[c-](C)c1C.[Cl-].[Cl][Ir+2].c1ccc(-c2ccccn2)nc1 [Cat15, reference compound]
activity in water oxidation (in words) ([1]; 5 μM catalyst, pH 5.6, 17 mM oxidant ("under these conditions")): not active

Cc1c(C)c(C)[c-](C)c1C.Oc1ccnc(-c2cc(O)ccn2)c1.[Cl-].[Cl-].[Ir+3] [[Cp*IrCl(4,4′-DHBP)]Cl, [Cp*Ir(4,4′-dhbp)Cl]Cl]
TOF ([2]; pH = 3 for 10 minutes): 0 min⁻¹ | TON ([2]; pH = 3 for 10 minutes): 0 | TOF ([2]; pH = 6 for 10 minutes): 14 min⁻¹ | TON ([2]; pH = 6 for 10 minutes): 124 | Enhancement as pH change from 3 to 6 [2]: >124X | Initial Rate [11]: 81.25 ± 12 μmole O2 L^−1 min^−1 | TOF [11]: 16.33 ± 12 min⁻¹ | TOF [12]: 4.33 min⁻¹ | TON [12]: 43.34 | 10 min: TOF [3]: 11.87 min⁻¹ | 10 min: TON [3]: 118.70 | TOF [3]: 21.35 ± 3 min⁻¹ | Initial Rate [3]: 106.25 ± 3 μM O2 min^−1 | pKa [4]: 4.4±0.2

Cc1c(C)c(C)[c-](C)c1C.Oc1cccc(-c2cccc(O)n2)n1.[Cl-].[Cl][Ir+2] [[Cp*IrCl(6,6′-DHBP)]Cl, [Cp*Ir(6,6′-DHBP)Cl]Cl]
TOF ([2]; pH = 3 for 10 minutes): 0.14 min⁻¹ | TON ([2]; pH = 3 for 10 minutes): 1.3 | TOF ([2]; pH = 6 for 10 minutes): 14 min⁻¹ | TON ([2]; pH = 6 for 10 minutes): 120 | Enhancement as pH change from 3 to 6 [2]: 92X | water oxidation (in words) ([5]; CAN=17 mM): does not oxidize water appreciably | TOF ([5]; CAN=67 mM, pH=6.0): 6.4 min⁻¹ | initial rate of oxygen evolution ([5]; CAN=67 mM, pH=6.0): 31 µM/min | TON ([5]; in 5 min, CAN=67 mM, pH=6.0): 14 | TOF [1, 13]: 6.3 min⁻¹ | initial rate of oxygen generation [1, 13]: 31 µM/min | TOF ([1]; at higher NaIO4 concentrations): 18 min⁻¹ | TON ([1]; at higher NaIO4 concentrations, in 5 mM (so in the source)): 84 | TON ([1]; in 5 min, 5 μM catalyst, pH 5.6, 17 mM sodium periodate): 36 | Initial Rate [11]: 75.00 ± 15 μmole O2 L^−1 min^−1 | TOF [11]: 15.07 ± 15 min⁻¹ | TOF [12]: 3.89 min⁻¹ | TON [12]: 38.93 | 10 min: TOF [3]: 9.99 min⁻¹ | 10 min: TON [3]: 99.86 | TOF [3]: 10.04 ± 3 min⁻¹ | Initial Rate [3]: 50 ± 3 μM O2 min^−1 | pKa [4]: 4.6±0.1 | slope of ln(rate) vs. ln([catalyst]) (reaction order in Ir catalyst) [6]: 0.94

Cc1c(C)c(C)[c-](C)c1C.[Cl-].[Cl-].[Ir+3].c1ccc(-c2ccccn2)nc1 [[Cp*IrCl(bipy)]Cl, reference compound]
Initial Rate (as stated in text of Example 5): 72±3 mole O2 L^−1 s^−1 | turnover frequency (TOF) (as stated in text of Example 5): 14.4±0.7 | 10 min: TOF [3]: 0.064 min⁻¹ | 10 min: TON [3]: 0.64 | TOF [3]: 0 ± 3 min⁻¹ | Initial Rate [3]: 0 ± 3 μM O2 min^−1

Cc1ccc(C(C)C)cc1.Cc1ccc(C(C)C)cc1.[Cl][Ru][Cl].[Cl][Ru][Cl] [[p-cymRuCl2]2, [(η^6-p-cymene)RuCl2]2]
% conversion ([7]; KOH, ^1PrOH): 100% | % conversion ([7]; NaO2CH, 10/90 MeOH/H2O): 15% | % conversion ([7]; NaO2CH, 50/50 MeOH/H2O): 13% | % conversion ([7]; NaO2CH, H2O): 13%

Cc1ccc(C(C)C)cc1.Oc1cccc(-c2cccc(O)n2)n1.[Cl-].[Cl][Ru+] [drawing 11]
Turnover frequency [8, 14]: 8.83 h⁻¹ | Turnover number [8, 14]: 53 | % conversion [8, 14]: 53% | Turnover frequency ([8]; substrate 2′-acetonaphtone): 13.50 h⁻¹ | Turnover number ([8]; substrate 2′-acetonaphtone): 81 | % conversion ([8]; substrate 2′-acetonaphtone): 81% | Turnover frequency ([8]; substrate 4-bromo-acetophenone): 16.17 h⁻¹ | Turnover number ([8]; substrate 4-bromo-acetophenone): 97 | % conversion ([8]; substrate 4-bromo-acetophenone): 97% | Turnover frequency [8, 15]: 10.71 h⁻¹ | Turnover number [8, 15]: 65 | % conversion [8, 15]: 65% | Turnover frequency ([8]; substrate acetophenone): 16.17 h⁻¹ | Turnover number ([8]; substrate acetophenone): 97 | % conversion ([8]; substrate acetophenone): 97% | Turnover frequency [9]: 0.63 h⁻¹ | Turnover number [9]: 30 | % conversion ([9]; 1 mole % catalyst, THF, NEt3, 75 psi H2, reflux 48 hours): 30%

Cc1ccc(C(C)C)cc1.Oc1cccc(-c2cccc(O)n2)n1.[Cl-].[Cl][Ru+] [drawing 12]
% conversion ([10]; 1 mole % catalyst, NaO2CH, 10/90 MeOH/H2O): 97% | % conversion ([10]; 1 mole % catalyst, NaO2CH, 50/50 MeOH/H2O): 96% | % conversion ([10]; 1 mole % catalyst, NaO2CH, H2O): 31% | % conversion ([10]; 5 mole % catalyst, NaO2CH, H2O): 89% | % conversion ([10]; 5 mole % catalyst, NaO2CH/HO2CH, H2O): 89%
